Source: ChEMBL document CHEMBL1201862, “PubChem BioAssay data set” (2004)
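Assay format: 96-well plates, 48-hour exposure. The concentration for 50% growth inhibition is given as GI50.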 Active and inactive are the calls of the source. No stated cut-off is given here; in the data, active = GI50 up to about 1.1 µM and inactive = higher.

Assays:
Assay in all cases: inhibition of tumour cell growth, NCI panel, 48 h
[1] = tested on: CCRF-CEM
[2] = tested on: KM12
[3] = tested on: MDA-MB-435
[4] = tested on: SNB-75
[5] = tested on: RPMI-8226
[6] = tested on: NCI-H460
[7] = tested on: SK-OV-3
[8] = tested on: HL-60
[9] = tested on: A498
[10] = tested on: DU-145
[11] = tested on: HCC 2998
[12] = tested on: UACC-62
[13] = tested on: U-251
[14] = tested on: HCT-116
[15] = tested on: OVCAR-4
[16] = tested on: NCI-H23
[17] = tested on: EKVX
[18] = tested on: NCI/ADR-RES
[19] = tested on: UACC-257
[20] = tested on: SK-MEL-2

| SMILES | GI50 [1] | GI50 [2] | GI50 [3] | GI50 [4] | GI50 [5] | GI50 [6] | GI50 [7] | GI50 [8] | GI50 [9] | GI50 [10] | GI50 [11] | GI50 [12] | GI50 [13] | GI50 [14] | GI50 [15] | GI50 [16] | GI50 [17] | GI50 [18] | GI50 [19] | GI50 [20] |
| --- | --- | --- | --- | --- | --- | --- | --- | --- | --- | --- | --- | --- | --- | --- | --- | --- | --- | --- | --- | --- |
| CN(C)c1nc(-c2ccccc2)c(C(=O)c2c[nH]c3ccccc23)s1 | 5.92 µM (inactive) | 4.2 µM (inactive) | 2.09 µM (inactive) | 2.67 µM (inactive) | 3.16 µM (inactive) | 3.55 µM (inactive) | 7.6 µM (inactive) | 3.4 µM (inactive) | 9.98 µM (inactive) | 34.2 µM (inactive) | 6.55 µM (inactive) | 6.05 µM (inactive) | 5.66 µM (inactive) | 3.88 µM (inactive) | 17.4 µM (inactive) | 30 µM (inactive) | 26 µM (inactive) | 3.06 µM (inactive) | 6.71 µM (inactive) |  |
| CCOP(=O)(OCC)C(Nc1ccc(C(=O)O)cc1)c1ccc(C(Nc2ccc(C(=O)O)cc2)P(=O)(OCC)OCC)cc1 (stereo not given) | > 100 µM (inactive) | > 100 µM (inactive) | > 100 µM (inactive) | > 100 µM (inactive) | > 100 µM (inactive) | > 100 µM (inactive) | > 100 µM (inactive) |  | > 100 µM (inactive) | > 100 µM (inactive) | > 100 µM (inactive) | > 100 µM (inactive) | > 100 µM (inactive) | > 100 µM (inactive) | > 100 µM (inactive) | > 100 µM (inactive) | > 100 µM (inactive) | > 100 µM (inactive) | > 100 µM (inactive) | > 100 µM (inactive) |
| CCC(=O)OCN(C)c1nc(N(C)COC(=O)CC)nc(N(C)COC(=O)CC)n1 | 24.8 µM (inactive) | 34.5 µM (inactive) | > 100 µM (inactive) | > 100 µM (inactive) | 27.4 µM (inactive) | 33.4 µM (inactive) | > 100 µM (inactive) | > 10 µM (inactive) | 49 µM (inactive) | 37 µM (inactive) | 24.6 µM (inactive) | 18.6 µM (inactive) | > 100 µM (inactive) | 22.9 µM (inactive) | 30.5 µM (inactive) | > 100 µM (inactive) |  | 32.4 µM (inactive) | 38.9 µM (inactive) | 18.2 µM (inactive) |
| COc1cc(C2C3=C(N=C4SC(C(C)=O)=C(C)N42)c2ccccc2CC3)cc(OC)c1OC (stereo not given) | > 100 µM (inactive) | > 100 µM (inactive) | 57 µM (inactive) | 53.7 µM (inactive) | 13.8 µM (inactive) |  | > 100 µM (inactive) | 30.8 µM (inactive) | > 100 µM (inactive) | > 100 µM (inactive) | > 100 µM (inactive) | > 100 µM (inactive) | > 100 µM (inactive) | > 100 µM (inactive) | > 100 µM (inactive) | > 100 µM (inactive) | 85.5 µM (inactive) | 78.9 µM (inactive) | > 100 µM (inactive) | > 100 µM (inactive) |
| CN1C(=O)[C@@H]2[C@@H]3c4ccccc4N(S(=O)(=O)C(F)(F)F)[C@@H]3c3[nH]c4ccccc4c3[C@@H]2C1=O | 25.2 µM (inactive) |  | > 100 µM (inactive) | 13.2 µM (inactive) | 8.39 µM (inactive) | 21.5 µM (inactive) | > 100 µM (inactive) |  | > 100 µM (inactive) | 98.2 µM (inactive) | > 100 µM (inactive) | > 100 µM (inactive) | 31.3 µM (inactive) | 17.2 µM (inactive) | 82.4 µM (inactive) | 54.1 µM (inactive) | 5.74 µM (inactive) | 26.3 µM (inactive) | 62.5 µM (inactive) | 81.5 µM (inactive) |
| Oc1ccc(C(=C(Br)c2ccccc2)c2ccc(O)cc2)cc1 | 7.52 µM (inactive) | 3.61 µM (inactive) | 1.52 µM (inactive) |  | 4.66 µM (inactive) | 11.1 µM (inactive) | 5.01 µM (inactive) | 3.39 µM (inactive) | 18.3 µM (inactive) | 13.1 µM (inactive) | 8.65 µM (inactive) | 8.47 µM (inactive) | 4.51 µM (inactive) | 4.25 µM (inactive) | > 10 µM (inactive) | 10.4 µM (inactive) | 11.5 µM (inactive) | 3.32 µM (inactive) | 12.6 µM (inactive) | 5.74 µM (inactive) |
| CC(C)=CCc1c(O)c(CC2=C(O)C(CC=C(C)C)(C(=O)C(C)C)C(O)=C(C)C2=O)c(O)c(C(=O)C(C)C)c1O (stereo not given) | 5.78 µM (inactive) | 7.53 µM (inactive) | 16.2 µM (inactive) | 13.6 µM (inactive) | 6.46 µM (inactive) |  | 18.8 µM (inactive) | 39 µM (inactive) | 9.57 µM (inactive) | 18.9 µM (inactive) | 7.8 µM (inactive) | 7.98 µM (inactive) | 12.4 µM (inactive) | 3.05 µM (inactive) | 15.8 µM (inactive) | 8.43 µM (inactive) | 17.7 µM (inactive) | 10.6 µM (inactive) | 11.5 µM (inactive) | 11.5 µM (inactive) |
| N#Cc1nnn(-c2ccc(Br)cc2)c1O | > 100 µM (inactive) | > 100 µM (inactive) | > 100 µM (inactive) | > 100 µM (inactive) | > 100 µM (inactive) |  | > 100 µM (inactive) | > 100 µM (inactive) | > 100 µM (inactive) | > 100 µM (inactive) | > 100 µM (inactive) | > 100 µM (inactive) | > 100 µM (inactive) | > 100 µM (inactive) | > 100 µM (inactive) | > 100 µM (inactive) | > 100 µM (inactive) | > 100 µM (inactive) | > 100 µM (inactive) | > 100 µM (inactive) |
| Cc1ccc2c(O)cc(-c3sccc3C)nc2n1 | 0.635 µM (active) | 0.719 µM (active) | 0.131 µM (active) | 0.726 µM (active) | 0.444 µM (active) | 0.44 µM (active) | 1.45 µM (inactive) | 0.174 µM (active) | 0.562 µM (active) | 2.62 µM (inactive) | 1.02 µM (active) | 0.9 µM (active) | 0.832 µM (active) | 0.452 µM (active) | 9.79 µM (inactive) | 0.337 µM (active) | 4.43 µM (inactive) | 0.326 µM (active) |  |  |
| O=C(Cc1ccccc1)Nc1nc2ccc(Cl)cc2c2nc(-c3ccco3)nn12 | > 100 µM (inactive) | > 100 µM (inactive) | > 100 µM (inactive) | 5.02 µM (inactive) | > 100 µM (inactive) | > 100 µM (inactive) | 39.6 µM (inactive) | > 100 µM (inactive) | > 60.3 µM (inactive) | > 100 µM (inactive) | > 100 µM (inactive) | > 100 µM (inactive) | 16.8 µM (inactive) | 14.8 µM (inactive) |  | 47.1 µM (inactive) | > 70.8 µM (inactive) | > 41.2 µM (inactive) | > 100 µM (inactive) | > 67.9 µM (inactive) |
| C=C[C@@](C)(/C=C/c1ccc(O)cc1)CCC=C(C)C [BAKUCHIOL] | 14.8 µM (inactive) |  | 18.2 µM (inactive) | 14 µM (inactive) | 14.9 µM (inactive) | 15.6 µM (inactive) | 16.3 µM (inactive) | 14.1 µM (inactive) | 21.2 µM (inactive) | 13.2 µM (inactive) | 20.6 µM (inactive) |  | 16.9 µM (inactive) | 18.1 µM (inactive) | 14 µM (inactive) | 16.7 µM (inactive) |  | 16.2 µM (inactive) | 17.7 µM (inactive) | 22 µM (inactive) |
